Key:
Assay type in all cases: functional, organism-based, Hepacivirus hominis
[1] = tested on: Hepatitis C virus; assay: Antiviral activity against HCV genotype 1a assessed as replicon RNA level measured after 3 days by real-time PCR method; conditions: subtype 1a, 72 h
[2] = tested on: Hepatitis C virus; assay: Antiviral activity against HCV genotype 1b assessed as replicon RNA level measured after 3 days by real-time PCR method; conditions: 72 h
[3] = tested on: Hepatitis C virus; assay: Antiviral activity against HCV genotype 2a assessed as replicon RNA level measured after 3 days by real-time PCR method; conditions: 72 h
[4] = tested on: Hepatitis C virus; assay: Antiviral activity against HCV genotype 2b assessed as replicon RNA level measured after 3 days by real-time PCR method; conditions: 72 h
[5] = tested on: Hepatitis C virus; assay: Antiviral activity against HCV genotype 3a assessed as replicon RNA level measured after 3 days by real-time PCR method; conditions: 72 h
[6] = tested on: Hepatitis C virus; assay: Antiviral activity against HCV genotype 4a assessed as replicon RNA level measured after 3 days by real-time PCR method; conditions: 72 h
[7] = tested on: Hepatitis C virus; assay: Antiviral activity against HCV genotype 1a harboring NS5A Y93H mutant assessed as replicon RNA level measured after 3 days by real-time PCR method; conditions: subtype 1a, 72 h
[8] = tested on: Hepatitis C virus; assay: Antiviral activity against HCV genotype 1a harboring NS5A L31V mutant assessed as replicon RNA level measured after 3 days by real-time PCR method; conditions: subtype 1a, 72 h

Compound | EC50 [1] [nM] | EC50 [2] [nM] | EC50 [3] [nM] | EC50 [4] [nM] | EC50 [5] [nM] | EC50 [6] [nM] | EC50 [7] [nM] | EC50 [8] [nM]
COC(=O)N[C@H](C(=O)N1CCC[C@H]1c1ncc(-c2ccc3c(c2)OC(c2ccc(OC)cc2)n2c-3cc3cc(-c4cnc([C@@H]5CCCN5C(=O)[C@@H](NC(=O)OC)C(C)C)[nH]4)ccc32)[nH]1)C(C)C (mixture of isomers) | 0.01 | 0.007 | 0.004 | 0.8 | 0.07 | 0.008 | 15 | 0.3
COC(=O)N[C@H](C(=O)N1CCC[C@H]1c1ncc(-c2ccc3c(c2)OC(c2cccc(N4CCOCC4)c2)n2c-3cc3cc(-c4cnc([C@@H]5CCCN5C(=O)[C@@H](NC(=O)OC)C(C)C)[nH]4)ccc32)[nH]1)C(C)C (mixture of isomers) | 0.004 | 0.006 | 0.002 | 17 | 0.12 | 0.007 | 52 | 0.3
CCc1cccc(C2Oc3cc(-c4cnc([C@@H]5CCCN5C(=O)[C@@H](NC(=O)OC)C(C)C)[nH]4)ccc3-c3cc4cc(-c5cnc([C@@H]6CCCN6C(=O)[C@@H](NC(=O)OC)C(C)C)[nH]5)ccc4n32)c1 (mixture of isomers) | 0.002 | 0.002 | 0.02 | 3 | 0.2 | 0.001 | 10 | 0.51
COC(=O)N[C@H](C(=O)N1CCC[C@H]1c1ncc(-c2ccc3c(c2)OC(c2cccc(-c4ccccc4)c2)n2c-3cc3cc(-c4cnc([C@@H]5CCCN5C(=O)[C@@H](NC(=O)OC)C(C)C)[nH]4)ccc32)[nH]1)C(C)C (stereo partly drawn) | 0.003 | 0.004 | 0.003 | 1 | 0.07 | 0.005 | 8 | 0.3
COC(=O)N[C@H](C(=O)N1CCC[C@H]1c1ncc(-c2ccc3c(c2)OC(c2cccc(C4CC4)c2)n2c-3cc3cc(-c4cnc([C@@H]5CCCN5C(=O)[C@@H](NC(=O)OC)C(C)C)[nH]4)ccc32)[nH]1)C(C)C (mixture of isomers) | 0.004 | 0.002 | 0.01 | 7 | 0.3 | 0.002 | 12 | 0.6
COC(=O)N[C@H](C(=O)N1CCC[C@H]1c1ncc(-c2ccc3c(c2)OC(c2ccc(-c4ccccc4)cc2)n2c-3cc3cc(-c4cnc([C@@H]5CCCN5C(=O)[C@@H](NC(=O)OC)C(C)C)[nH]4)ccc32)[nH]1)C(C)C (mixture of isomers) | < 0.02 | < 0.02 | < 0.2 | < 2 | < 0.2 | < 0.02 | < 2 | < 2
COC(=O)N[C@H](C(=O)N1CCC[C@H]1c1ncc(-c2ccc3c(c2)OC(c2cccnc2)n2c-3cc3cc(-c4cnc([C@@H]5CCCN5C(=O)[C@@H](NC(=O)OC)C(C)C)[nH]4)ccc32)[nH]1)C(C)C (mixture of isomers) | 0.005 | 0.009 | 0.04 | 2 | 2 | 0.03 | 7 | 0.9
COC(=O)N[C@H](C(=O)N1CCC[C@H]1c1ncc(-c2ccc3c(c2)OC(c2ccc(-c4ccc5cncn5c4)cc2)n2c-3cc3cc(-c4cnc([C@@H]5CCCN5C(=O)[C@@H](NC(=O)OC)C(C)C)[nH]4)ccc32)[nH]1)C(C)C (mixture of isomers) | 0.03 | 0.01 | 0.04 | 4 | 1 | 0.03 | 20 | 2
COC(=O)N[C@H](C(=O)N1CCC[C@H]1c1ncc(-c2ccc3c(c2)OC(c2ccc(-c4cccc(-c5ccccc5)c4)cc2)n2c-3cc3cc(-c4cnc([C@@H]5CCCN5C(=O)[C@@H](NC(=O)OC)C(C)C)[nH]4)ccc32)[nH]1)C(C)C (mixture of isomers) | < 0.02 | 0.003 | < 0.02 | < 2 | 0.2 | < 0.02 | 2 | < 2
COC(=O)N[C@H](C(=O)N1CCC[C@H]1c1ncc(-c2ccc3c(c2)OC(c2cccc(C(F)(F)F)c2)n2c-3cc3cc(-c4cnc([C@@H]5CCCN5C(=O)[C@@H](NC(=O)OC)C(C)C)[nH]4)ccc32)[nH]1)C(C)C (mixture of isomers) | 0.003 | 0.003 | 0.003 | 2 | 0.04 | 0.01 | 2 | 0.62
COC(=O)N[C@H](C(=O)N1CCC[C@H]1c1ncc(-c2ccc3c(c2)OC(c2ccc(-c4ccc(-c5ccccc5)cc4)cc2)n2c-3cc3cc(-c4cnc([C@@H]5CCCN5C(=O)[C@@H](NC(=O)OC)C(C)C)[nH]4)ccc32)[nH]1)C(C)C (mixture of isomers) | 0.001 | 0.002 | 0.003 | 0.06 | 0.1 | 0.001 | < 2 | 0.06
COC(=O)N[C@H](C(=O)N1CCC[C@H]1c1ncc(-c2ccc3c(c2)OC(c2ccc(-c4ccncc4)cc2)n2c-3cc3cc(-c4cnc([C@@H]5CCCN5C(=O)[C@@H](NC(=O)OC)C(C)C)[nH]4)ccc32)[nH]1)C(C)C (mixture of isomers) | 0.003 | 0.004 | < 0.2 | < 2 | 0.1 | 0.02 | 19 | 0.3
COC(=O)N[C@H](C(=O)N1CCC[C@H]1c1ncc(-c2ccc3c(c2)OC(c2cccc(C(=O)O)c2)n2c-3cc3cc(-c4cnc([C@@H]5CCCN5C(=O)[C@@H](NC(=O)OC)C(C)C)[nH]4)ccc32)[nH]1)C(C)C (mixture of isomers) | 2.83 | 2.4 | 11.8 | > 1000 | 290 | 5.15 | > 1000 | 212
COC(=O)N[C@H](C(=O)N1CCC[C@H]1c1ncc(-c2ccc3c(c2)OC(c2ccccc2)n2c-3cc3cc(-c4cnc([C@@H]5CCCN5C(=O)[C@@H](NC(=O)OC)C(C)C)[nH]4)ccc32)[nH]1)C(C)C (stereo partly drawn) | 0.004 | 0.003 | 0.003 | 3 | 0.02 | 0.003 | 2 | 0.5
COC(=O)N[C@H](C(=O)N1CCC[C@H]1c1ncc(-c2ccc3c(c2)OC(c2ccc(C4CC4)cc2)n2c-3cc3cc(-c4cnc([C@@H]5CCCN5C(=O)[C@@H](NC(=O)OC)C(C)C)[nH]4)ccc32)[nH]1)C(C)C (mixture of isomers) | 0.003 | < 0.02 | < 0.2 | 0.5 | 0.03 | < 0.2 | 0.5 | 0.04
COC(=O)N[C@H](C(=O)N1CCC[C@H]1c1ncc(-c2ccc3c(c2)OC(c2cccc(C(N)=O)c2)n2c-3cc3cc(-c4cnc([C@@H]5CCCN5C(=O)[C@@H](NC(=O)OC)C(C)C)[nH]4)ccc32)[nH]1)C(C)C (mixture of isomers) | 0.09 | 0.01 | 0.51 | > 100 | > 1 | > 1 | 19 | 7
COC(=O)N[C@H](C(=O)N1CCC[C@H]1c1ncc(-c2ccc3c(c2)OC(c2cccc(-c4ncon4)c2)n2c-3cc3cc(-c4cnc([C@@H]5CCCN5C(=O)[C@@H](NC(=O)OC)C(C)C)[nH]4)ccc32)[nH]1)C(C)C (mixture of isomers) | 0.009 | 0.006 | 0.007 | 4 | 0.4 | 0.02 | 6 | 0.2
COC(=O)N[C@H](C(=O)N1CCC[C@H]1c1ncc(-c2ccc3c(c2)OC(c2cccc(-c4noc(C)n4)c2)n2c-3cc3cc(-c4cnc([C@@H]5CCCN5C(=O)[C@@H](NC(=O)OC)C(C)C)[nH]4)ccc32)[nH]1)C(C)C (mixture of isomers) | 0.003 | 0.004 | 0.002 | 2 | 0.07 | 0.01 | 0.9 | 0.2
COC(=O)N[C@H](C(=O)N1CCC[C@H]1c1ncc(-c2ccc3c(c2)OC(c2ccc(C#N)cc2)n2c-3cc3cc(-c4cnc([C@@H]5CCCN5C(=O)[C@@H](NC(=O)OC)C(C)C)[nH]4)ccc32)[nH]1)C(C)C (mixture of isomers) | 0.004 | 0.003 | 0.006 | 6.5 | 0.25 | 0.01 | 12 | 0.6
CNC(=O)c1cccc(C2Oc3cc(-c4cnc([C@@H]5CCCN5C(=O)[C@@H](NC(=O)OC)C(C)C)[nH]4)ccc3-c3cc4cc(-c5cnc([C@@H]6CCCN6C(=O)[C@@H](NC(=O)OC)C(C)C)[nH]5)ccc4n32)c1 (mixture of isomers) | 0.06 | 0.01 | 0.09 | 24 | 0.9 | 0.18 | 145 | < 10
COC(=O)N[C@H](C(=O)N1CCC[C@H]1c1ncc(-c2ccc3c(c2)OC(c2cccc(-c4ccc(-c5ccccc5)cc4)c2)n2c-3cc3cc(-c4cnc([C@@H]5CCCN5C(=O)[C@@H](NC(=O)OC)C(C)C)[nH]4)ccc32)[nH]1)C(C)C (mixture of isomers) | 0.006 | 0.003 | 0.003 | 3 | 0.01 | 0.005 | 2 | 0.3

— ChEMBL document CHEMBL3822455, “Aryl or heteroaryl substituted aminal derivatives of HCV NS5A inhibitor MK-8742” (Bioorg Med Chem Lett, 2016)
